In publication PMC10317891, “Fibroblast activation protein targeted radiotherapy induces an immunogenic tumor microenvironment and enhances the efficacy of PD-1 immune checkpoint inhibition” (European Journal of Nuclear Medicine and Molecular Imaging, 2023):
Numbered stars: 1 amine (or outer) side, 2 acyl side, 3 side chain; on linkers, the order of the positions; unused ones are H or OH. Bridge positions count the residues as written; N and C are the ends. Peptide text beside a SMILES is read from it. * marks the point of attachment. X1 = O=C(O)CN1CCN(CC(=O)O)CCN(CC(=O)N2CCN(Cc3cc(C[*:1])cc(C[*:2])c3)CC2)CCN(CC(=O)O)CC1; Hexanoyl = CCCCCC(=O)*

Assay: Plasma stability
Assay type: in vitro ADME
Details: 10 µM, 37°C, UHPLC-QTOF MS with internal standard
Method: FAP-2287 was incubated in 50 µL of plasma with 3.8% sodium citrate as anticoagulant at a concentration of 10 µM. After 1, 2, 4, and 24 hours incubation at 37°C a suitable internal standard was added. FAP-2287 with plasma proteins were precipitated using 250 µL of a precipitation agent consisting of 1% trifluoroacetic acid in acetonitrile. Precipitation was carried out at room temperature for 30 minutes. After centrifugation at 18,200 relative centrifugal force (rcf) for 5 minutes, 100 µL of the supernatant was mixed with 100 µL of 1% formic acid.
A nonincubated plasma sample spiked with 10 µM sample concentration was prepared in the same way and was used as the reference. A pure plasma sample was incubated for 24 hours as a blank sample. A further pure plasma sample was incubated for 24 hours, processed as described above and spiked directly before analysis to determine the recovery. The samples were analyzed using an Agilent 1290 UHPLC system coupled to an Agilent 6530 QTOF mass spectrometer.
For the quantitative data analysis, the Agilent Quantitative Analysis B.08.00 software (RRID:SCR_015040) was used. The ion currents of the triply charged proton adducts of the compounds were extracted with a mass window of ±50 parts per million and the chromatographic peak was integrated. The concentration of the compound was determined by external matrix calibration with internal standard using 6 calibration samples (1, 2.5, 5, 7.5, 10, and 12.5 µM). A quadratic regression was performed. Carryover was determined by analyzing the blank sample directly after the highest calibration sample and comparing the determined peak areas. Recovery was calculated as the ratio between the spiked concentration of the recovery sample and the concentration calculated from the peak area of this sample.

## CCCCCC(=O)N[C@H]1CSCc2cc(cc(CN3CCN(C(=O)CN4CCN(CC(=O)O)CCN(CC(=O)O)CCN(CC(=O)O)CC4)CC3)c2)CSC[C@@H](C(=O)N[C@@H](CC(=O)O)C(N)=O)NC(=O)[C@H](Cc2ccccc2)NC(=O)[C@H](CCC(N)=O)NC(=O)[C@H]([C@@H](C)O)NC(=O)[C@@H]2CCCN2C(=O)[C@@H]2CCCN2C1=O [natLu-FAP-2287, metal not drawn] (Hexanoyl-CPPTQFCD-NH2; linker 1-7 via X1; N-terminus and C-terminus assumed)
Human plasma with 3.8% sodium citrate
  Plasma Stability (24 h) Human Plasma: > 80%
Mouse plasma with 3.8% sodium citrate
  Plasma Stability (24 h) Mouse Plasma: > 80%
